From patent publication US6410525B1, “Carbapenem derivatives, utilization thereof and intermediate compounds of the same” (Kyoto Pharmaceutical Industries, Ltd., priority 1998, dated 2002)

Assay: Oral absorption test: concentration of hydrolyzed carbapenem compound (A) in plasma after oral administration
Assay type: in vivo
Conditions: mice, 100 mg/kg orally, hydrolyzed carbapenem compound (A) by HPLC
Protocol: The compound of the present invention (100 mg/kg, compound of Example 13) was orally administered to mice (3 per group) and the concentration of hydrolyzed carbapenem compound (A) in plasma was determined at 0.25, 0.5, 1.0, 2.0 and 3.0 hours later by HPLC.
The compound of the present invention (100 mg/kg, compound of Example 15) was orally administered to mice (3 per group) and the concentration of hydrolyzed carbapenem compound (A) in plasma was determined at 0.25, 0.5, 1.0, 2.0 and 3.0 hours later by HPLC.

Compound	Average concentration in plasma (0.25 hr)	Average concentration in plasma (0.5 hr)	Average concentration in plasma (1.0 hr)	Average concentration in plasma (2.0 hr)	Average concentration in plasma (3.0 hr)
CCC(=O)OCOC(=O)N1C[C@@H](SC2=C(C(=O)OCOC(=O)C(C)(C)C)N3C(=O)[C@H]([C@@H](C)O)[C@H]3[C@H]2C)C[C@H]1C(=O)N(C)C [Example 13]	9.5 µg/mL	4.8 µg/mL	1.9 µg/mL	0.6 µg/mL	0.2 µg/mL
CC(C)C(=O)OCOC(=O)N1C[C@@H](SC2=C(C(=O)OCOC(=O)C(C)(C)C)N3C(=O)[C@H]([C@@H](C)O)[C@H]3[C@H]2C)C[C@H]1C(=O)N(C)C [Example 15, pivaloyloxymethyl (1R,5S,6S)-2-[(3S,5S)-(5-N,N-dimethylaminocarbonyl-1-isobutyryloxymethyloxycarbonyl)pyrrolidin-3-ylthio]-6-[(1R)-1-hydroxyethyl]-1-methylcarbapen-2-em-3-carboxylate]	8.6 µg/mL	10.1 µg/mL	4.8 µg/mL	1.4 µg/mL	0.3 µg/mL
